pKi: −log10 of the molar value.
Assays:
[1] = tested on: polymorphoneucleocyte (PMN); assay: Extracellular Matrix (ECM) degradation assay; assay type: cell-based; conditions: PMN's stimulated with opsonized zymosan, 4 hr at 37° C.; for ECM DATA % Inhibition 1 uM / inhibition at 1 µM: 1 uM inhibitor; for ECM DATA % Inhibition 5 uM / inhibition at 5 µM: 5 uM inhibitor
Description: Forty-eight well plates on which extracellular matrix had been established were supplied to Cortech by Dr. Simon's group at the State University of New York at Stony Brook. Briefly, the plates were prepared as follows: R22 rat heart smooth muscle cells were seeded into wells at 2.5×10^4 cells/cm. The cells were fed every 4 days with Eagle's Minimal Essential Media supplemented with fetal bovine serum, tryptose phosphate broth, cefotaxime and streptomycin. At confluence, daily supplements of 50 ug/ml ascorbic acid were added for 8 to 10 days during the synthesis of the ECM layer. [^35S]sulfate and [^3H]proline were also added to the culture media to incorporate radiolabel into the matrix. Cells were later lysed with 25 mM NH4OH. Plates were washed three times with water and once with phosphate-buffered saline containing 0.02% NaN3. Plates were stored at 4° C. until use.
Matrix degradation assays were performed as follows: 0.40 ml of Hanks balance salt solution (HBSS) containing 1 or 5 uM test inhibitor (final concentration; diluted from DMSO stock solution; <2% DMSO final concentration) was added to the wells. After 30 minutes, 50 ul of a polymorphoneucleocyte (PMN) suspension was added resulting in 5×10^5 cells/well. PMN's were stimulated with opsonized zymosan. Zymosan particles were washed and suspended in 0.5 ml human serum for 1 hr at 37° C., vortexing every 15 min. The particles were then washed three times with HBSS and added to wells at a ratio of 10 particles/PMN in a volume of 50 ul. After a 4 hr incubation at 37° C., a 100 ul aliquot of the supernatant was withdrawn for scintillation counting. Following removal of the remaining supernatant, the residual ECM was solubilized with 0.5 ml 2M NaOH. The amount of tritium in this solubilized ECM was accessed by scintillation. ECM degradation data are expressed as (soluble counts released/total ECM counts)—(basal counts released without PMN's/total ECM counts).

[2] = molecular target: T1, human neutrophil elastase (HNE) (Homo sapiens, UniProt P08246); assay: HNE Ki of CE compounds, tested as described in WO 96/16080; assay type: biochemical; conditions: read-out: HNE Ki
T1 sequence (P08246 30-267): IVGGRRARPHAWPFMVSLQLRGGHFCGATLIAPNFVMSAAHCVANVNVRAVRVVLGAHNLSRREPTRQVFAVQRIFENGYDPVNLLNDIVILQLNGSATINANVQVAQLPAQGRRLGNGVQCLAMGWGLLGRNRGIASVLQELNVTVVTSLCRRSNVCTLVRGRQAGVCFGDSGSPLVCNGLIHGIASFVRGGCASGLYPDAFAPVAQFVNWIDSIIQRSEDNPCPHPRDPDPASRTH

Row | pKi [2] | Compound | ECM DATA % Inhibition 1 uM [1] [%] | ECM DATA % Inhibition 5 uM [1] [%] | inhibition at 1 µM [1] [%] | inhibition at 5 µM [1] [%]
1 | 9.68 | Cc1cccc(Cc2nnc(C(=O)[C@@H](NC(=O)Cn3c(-c4ccc(F)cc4)ncc(NC(=O)OCc4ccccc4)c3=O)C(C)C)o2)c1 [CE2095, 2-[5-[(Benzyloxycarbonyl)amino]-6-oxo-2-(4-fluorophenyl)-1,6-dihydro-1-pyrimidinyl]-N-[1-(2-[5-(3-methylbenzyl)-1,3,4-oxadiazolyl]carbonyl)-(S)-2-methylpropyl]acetamide] |  |  | 60.4 | 55.6
2 | 8.19 | Cc1cccc(Cc2nnc(C(=O)C(NC(=O)CN3C(=O)[C@@H](Cc4ccccc4)N(CCN4CCOCC4)C3=O)C(C)C)o2)c1 (stereo partly drawn) [CE2173, 1-(3-Morpholinoethyl)-5-(R)-benzyl-2,4-imidazolidinedione-N-[1-(2-[5-(3-methylbenzyl)-1,3,4-oxadiazolyl]carbonyl)-2-(R,S)-methylpropyl]acetamide] | 35.9 | 47.1 |  | 
3 | 7.62 | 2-Oxo-5-methyl-1,4-(2-phenyl-1-thiophenodiazepine)-N-[1-(2-[5-(3-methylbenzyl)-1,3,4-oxadiazolyl]carbonyl)-2-(S)-methylpropyl]acetamide [CE2245] | 34.7 | 39.3 |  | 
4 | 7.52 | Cc1cccc(Cc2nnc(C(=O)[C@@H](NC(=O)CN3C(=O)N[C@H](c4ncc[nH]4)C3=O)C(C)C)o2)c1 [CE2257, 4-(R)-(2-Imidazolyl)-2,5-imidazolidinedione-N-[1-(2-[5-(3-methylbenzyl)-1,3,4-oxadiazolyl]carbonyl)-2-(S)-methylpropyl]acetamide] | 48.3 | 61.4 |  | 
5 | 8.00 | Cc1cccc(Cc2nnc(C(=O)[C@@H](NC(=O)CN3C(=O)N[C@@H](Cc4ccccc4)C3=O)C(C)C)o2)c1 [CE2154, 5-(S)-Benzyl-2,4-imidazolidinedione-N-[1-(2-[5-(3-methylbenzyl)-1,3,4-oxadiazolyl]carbonyl)-2-(S)-methylpropyl]acetamide] |  |  | 54.6 | 65.4
6 | 7.07 | Cc1cccc(Cc2nnc(C(=O)C(NC(=O)CN3C(=O)N(Cc4ccccc4)C(=O)[C@@H]3Cc3ccccc3)C(C)C)o2)c1 (stereo partly drawn) [CE2191, 1-Benzyl-4-(S)-benzyl-2,5-imidazolidinedione-N-[1-(2-[5-(3-methylbenzyl)-1,3,4-oxadiazolyl]carbonyl)-2-(R,S)-methylpropyl]acetamide] | 29.35 | 30.5 |  | 
7 | 6.10 | Cc1cccc(Cc2nnc(C(=O)[C@@H](NC(=O)Cn3c(-c4ccccn4)nc4ccccc43)C(C)C)o2)c1 [CE2234, 2-(2-Pyridyl)-benzimidazole-N-[1-(2-[5-(3-methylbenzyl)-1,3,4-oxadiazolyl]carbonyl)-2-(S)-methylpropyl]acetamide] |  |  | 39.7 | 35
8 | 8.09 | (R,S)-3-Amino-2-oxo-5-methyl-1,4-(2′,3′-methylenedioxy-benzodiazepine)-N-[1-(2-[5-(3-methylbenzyl)-1,3,4-oxadiazolyl]carbonyl)-2-(R,S)-methylpropyl]acetamide [CE2225] | 30.85 | 43.45 |  | 
9 | 10.09 | Cc1cccc(Cc2nnc(C(=O)[C@@H](NC(=O)[C@@H]3CCCN3C(=O)[C@@H](NC(=O)c3cccnc3)C(C)C)C(C)C)o2)c1 [CE2161, (Pyridyl-3-carbonyl)-L-valyl-N-[1-(2-[5-(3-methylbenzyl)-1,3,4-oxadiazolyl]carbonyl)-2-(S)-methylpropyl]-L-prolinamide] |  |  | 25 | 55
10 | 8.14 | Cc1cccc(Cc2nnc(C(=O)C(NC(=O)CN3C(=O)C(c4ccccc4)N(CCN4CCOCC4)C3=O)C(C)C)o2)c1 [CE2192, 1-(N-Morpholinoethyl)-5-(R,S)-phenyl-2,4-imidazolidinedione-N-[1-(2-[5-(3-methylbenzyl)-1,3,4-oxadiazolyl]carbonyl)-2-(R,S)-methylpropyl]acetamide] |  |  | 40.8 | 49.7
11 | 7.74 | Cc1cccc(Cc2nnc(C(=O)[C@@H](NC(=O)CN3C(=O)N[C@H](Cc4ccc(O)cc4)C3=O)C(C)C)o2)c1 [CE2255, 4-(R)-(4-Hydroxybenzyl)-2,5-imidazolidinedione-N-[1-(2-[5-(3-methylbenzyl)-1,3,4-oxadiazolyl]carbonyl)-2-(S)-methylpropyl]acetamide] | 20.7 | 42 |  | 
12 | 8.02 | COc1cc2c(cc1OC)N(CC(=O)NC(C(=O)c1nnc(Cc3cccc(C)c3)o1)C(C)C)C(=O)C(N)N=C2C [CE2235, (R,S)-3-Amino-2-oxo-5-methyl-1,4-(2′,3′-dimethoxybenzodiazepine)-N-[1-(2-[5-(3-methylbenzyl)-1,3,4-oxadiazolyl]carbonyl)-2-(R,S)-methylpropyl]acetamide] | 19.75 | 13.25 |  | 

Row | Compound | pKi [2] | ECM DATA % Inhibition 1 uM [1] [%] | ECM DATA % Inhibition 5 uM [1] [%] | inhibition at 1 µM [1] [%] | inhibition at 5 µM [1] [%]
13 | Cc1cccc(Cc2nnc(C(=O)C(NC(=O)CN3C(=O)C(N)N=C(c4ccccc4Cl)c4cc(Cl)ccc43)C(C)C)o2)c1 [CE2229, (R,S)-3-Amino-2-oxo-5-(2-chlorophenyl)-1,4-(2′-chlorobenzodiazepine)-N-[1-(2-[5-(3-methylbenzyl)-1,3,4-oxadiazolyl]carbonyl)-2-(R,S)-methylpropyl]acetamide] | 8.02 | 31.25 | 48.2 |  | 
14 | CCCCc1nnc(C(=O)C(NC(=O)CN2C(=O)C(N)N=C(c3ccccn3)c3ccccc32)C(C)C)o1 [CE2218, (R,S)-3-Amino-2-oxo-5-(2-pyridyl)-1,4-benzodiazepine-N-[1-(2-[5-(3-methylpropyl)-1,3,4-oxadiazolyl]carbonyl)-2-(R,S)-methylpropyl]acetamide] | 8.80 | 30.5 | 33.15 |  | 
15 | COc1ccccc1C1=NCC(=O)N(CC(=O)N[C@H](C(=O)c2nnc(Cc3cccc(C)c3)o2)C(C)C)c2ccccc21 [CE2250, 2-Oxo-5-(2-methoxyphenyl)-1,4-benzodiazepine-N-[1-(2-[5-(3-methylbenzyl)-1,3,4-oxadiazolyl]carbonyl)-2-(S)-methylpropyl]acetamide] | 8.16 |  |  | 27.4 | 48.6
